Data: US9382243B2, “Azabenzimidazole tetrahydropyran derivatives” (Merck Sharp & Dohme Corp., priority 2012, dated 2016)
pEC50: −log10 of the molar value.

How the values were obtained:
[1] = target: recombinant human AMPK complex 1 (containing α1β1γ1) (Homo sapiens, UniProt Q13131+Q9Y478); experiment: AMPKSAMSF in vitro AMPK activation assay, complex 1; assay type: biochemical; details: for Emax: 10-point titration, expressed as % maximum AMP activation; for pEC50: inflection point reflecting 50% of the maximum activation, table for human AMPK Complex 1
Description: The recombinant human AMPK complex 1 (containing α1β1γ1) or AMPK complex 7 (containing α2β1γ1) was obtained from baculovirus expression system. Recombinant viruses were generated by cotransfection of AMPK/pBacPak9 clones with Baculogold baculovirus DNA (Pharmingen) in spodoptera frugiperda 21 cells according to the manufacturer's instructions. Each round of virus amplification was performed for 5 days in Grace's medium containing 10% serum. Virus that had been subjected to three rounds of amplification was used for all protein production procedures. To express the AMPK complex, sf21 cells were adapted to serum free medium (SF900 II, Invitrogen) by sequential dilution from serum containing stocks into SF900II medium and maintained in shaker flasks at 90 rpm at 27° C. The recombinant AMPK enzyme complex was produced by triple infection, one recombinant virus for each of the subunits, in sf21 cells under serum free conditions. Cells were infected in log phase, 1×10^6 cells/ml, at a multiplicity of infection of ˜5. Cells were harvested by centrifugation at 10,000×g for 15 minutes after 72 hours of infection with viruses. The insect cell pellet from 2 liters of culture was resuspended in 50 ml lysis buffer (20 mM Tris-HCl, 50 mM NaCl, 50 mM NaF, 30 mM Na PPi, 0.25 M sucrose, 10 mM ZnCl2, 2 mM DTT, 0.4 mg/ml digitonin) and subjected to two cycles of freeze-thaw lysis in a dry-ice ethanol bath. Insoluble material was removed by centrifugation at 10,000×g and the supernatant was fractionated with use of polyethylene glycol (PEG). The protein fraction precipitating between 2.5 and 6% PEG was used for further purification using a Blue-Sepharose step (Zhou et al, J. Clin. Invest. 108, 1167-1174, 2001).
The in vitro AMPK activation assay is performed in a volume of 30 μl in a 384-well plate. Enzyme reactions were assembled in the microtiter plate by adding 15 μl of 2× enzyme in assay buffer (20 mM HEPES, pH 7.3, 5 mM MgCl2, 3 mM DTT, 0.01% Brij 35 and CamK Kinase, to activate AMPK) to wells which contained either DMSO or compound. The reaction was initiated with the addition of 15 μl 2× substrate mixture containing 200 μM ATP, and 3.0 μM fluorescently labeled SAMS (5-FAM-HMRSAMSGLHLVKRR-COOH) in assay buffer. After 45-minute incubation at 25° C., the reaction was stopped by the addition of 70 μl stop buffer (100 mM HEPES, pH 7.3, 40 mM EDTA, 0.015% Brij 35). Phosphorylated 5-FAM SAMS product is assessed using a Caliper EZ Reader LabChip microfluidics reader. Product conversion is determined by calculating the peak heights of the substrate and product and reporting the product/(product+substrate) peak ratio. The 10-point titration data were expressed as % maximum AMP activation. The results were plotted using 4 parameter fit and the inflection point reflecting 50% of the maximum activation was reported as the EC50.

ob/ob and db/db mice = details: following 8 weeks of administration; cited from earlier work

Chain of recombinant human AMPK complex 1 (containing α1β1γ1) (Q13131 whole entry): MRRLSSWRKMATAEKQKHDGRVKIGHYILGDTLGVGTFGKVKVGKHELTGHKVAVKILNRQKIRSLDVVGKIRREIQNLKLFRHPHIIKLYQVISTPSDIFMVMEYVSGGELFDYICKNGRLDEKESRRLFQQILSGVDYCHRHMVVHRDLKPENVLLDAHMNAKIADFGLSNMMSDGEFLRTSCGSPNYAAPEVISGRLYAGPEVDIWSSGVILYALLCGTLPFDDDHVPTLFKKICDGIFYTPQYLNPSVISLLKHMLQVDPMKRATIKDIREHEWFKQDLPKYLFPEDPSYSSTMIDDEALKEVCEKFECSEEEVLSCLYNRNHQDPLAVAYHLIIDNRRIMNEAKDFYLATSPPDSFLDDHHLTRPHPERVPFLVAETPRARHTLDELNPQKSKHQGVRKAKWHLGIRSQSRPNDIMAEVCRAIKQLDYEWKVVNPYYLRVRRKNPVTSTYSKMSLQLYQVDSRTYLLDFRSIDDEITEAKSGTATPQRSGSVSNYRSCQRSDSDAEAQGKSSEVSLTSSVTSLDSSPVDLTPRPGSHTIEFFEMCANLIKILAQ
Chain of recombinant human AMPK complex 1 (containing α1β1γ1) (Q9Y478 whole entry): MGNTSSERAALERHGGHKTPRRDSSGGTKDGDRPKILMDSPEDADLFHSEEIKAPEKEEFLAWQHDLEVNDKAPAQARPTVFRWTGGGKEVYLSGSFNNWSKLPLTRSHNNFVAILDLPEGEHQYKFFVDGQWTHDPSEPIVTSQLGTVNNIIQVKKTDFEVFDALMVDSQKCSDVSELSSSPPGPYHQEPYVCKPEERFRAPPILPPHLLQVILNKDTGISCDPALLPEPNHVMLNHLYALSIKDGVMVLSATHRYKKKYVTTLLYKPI
Chain of recombinant human AMPK complex 1 (containing α1β1γ1) (P54619 whole entry partner): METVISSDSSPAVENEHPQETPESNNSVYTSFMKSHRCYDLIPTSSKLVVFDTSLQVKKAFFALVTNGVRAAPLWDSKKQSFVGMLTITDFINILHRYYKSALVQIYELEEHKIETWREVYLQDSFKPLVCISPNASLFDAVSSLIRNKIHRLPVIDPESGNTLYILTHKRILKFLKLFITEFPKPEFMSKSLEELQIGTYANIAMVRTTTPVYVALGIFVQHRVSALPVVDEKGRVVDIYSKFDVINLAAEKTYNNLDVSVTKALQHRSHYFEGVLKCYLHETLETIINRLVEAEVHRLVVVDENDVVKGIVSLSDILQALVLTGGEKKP

SMILES	Emax [1]	pEC50 [1]	blood glucose reduction (ob/ob and db/db mice)
NS(=O)(=O)c1ccc(-c2ccc(-c3nc4nc(O[C@H]5CO[C@H](CO)[C@@H](O)C5)[nH]c4cc3Cl)cc2)cc1 [Example 56]	392%	7.96	
CC(C)(O)c1ccc(-c2ccc(-c3nc4nc(O[C@H]5CO[C@H](CO)[C@@H](O)[C@@H]5O)[nH]c4cc3Cl)cc2)cc1 [Example 66]	410%	7.89	
CNC(=O)c1ccc(-c2ccc(-c3nc4nc(O[C@H]5CO[C@H](CO)[C@@H](O)C5)[nH]c4cc3Cl)cc2)cc1 [Example 71, 4′-(6-chloro-2-(((3R,5 S,6R)-5-hydroxy-6-(hydroxymethyl)tetrahydro-2H-pyran-3-yl)oxy)-1H-imidazo[4,5-b]pyridin-5-yl)-N-methyl-[1,1′-biphenyl]-4-carboxamide]	443%	8.22	
OC[C@H]1OC[C@H](Oc2nc3nc(-c4ccc(N5CC[C@@H](F)C5)cc4)c(Cl)cc3[nH]2)C[C@@H]1O [Example 35]	489%	7.74	
CC(C)(O)c1ccc(-c2ccc(-c3nc4nc(O[C@H]5CO[C@H](CO)[C@@H](O)C5)[nH]c4cc3Cl)cc2)cc1 [Example 39, (2R,3 S,5R)-5-((6-chloro-5-(4′-(2-hydroxypropan-2-yl)-[1,1′-biphenyl]-4-yl)-1H-imidazo[4,5-b]pyridin-2-yl)oxy)-2-(hydroxymethyl)tetrahydro-2H-pyran-3-ol]	379%	8.40	
O=S(=O)(c1ccc(-c2ccc(-c3nc4nc(O[C@H]5CO[C@H](CO)[C@@H](O)C5)[nH]c4cc3Cl)cc2)cc1)C1COC1 [Example 55]	752%	8.10	
O=C(c1ccc(-c2ccc(-c3nc4nc(O[C@H]5CO[C@H](CO)[C@@H](O)C5)[nH]c4cc3Cl)cc2)cc1)N1CC[C@@H](O)C1 [Example 61, (4′-(6-chloro-2-(((3R,5 S,6R)-5-hydroxy-6-(hydroxymethyl)tetrahydro-2H-pyran-3-yl)oxy)-1H-imidazo[4,5-b]pyridin-5-yl)-[1,1′-biphenyl]-4-yl)((R)-3-hydroxypyrrolidin-1-yl)methanone]	568%	7.44	
OC[C@H]1OC[C@H](Oc2nc3nc(-c4ccc(-c5ccc(-n6cccn6)cc5)cc4)c(Cl)cc3[nH]2)C[C@@H]1O [Example 45]	417%	8.52	
OC[C@H]1OC[C@H](Oc2nc3nc(-c4ccc(N5CC[C@H](F)C5)cc4)c(Cl)cc3[nH]2)C[C@@H]1O [Example 37]	473%	7.66	
OC[C@H]1OC[C@H](Oc2nc3nc(-c4ccc(-c5ccc(-n6nccn6)cc5)cc4)c(Cl)cc3[nH]2)C[C@@H]1O [Example 47]	590%	7.60	
NC(c1ccc(-c2ccc(-c3nc4nc(O[C@H]5CO[C@H](CO)[C@@H](O)C5)[nH]c4cc3Cl)cc2)cc1)C(F)(F)F (stereo partly drawn) [Example 49, (2R,3 S,5R)-5-((5-(4′-(1-amino-2,2,2-trifluoroethyl)-[1,1′-biphenyl]-4-yl)-6-chloro-1H-imidazo[4,5-b]pyridin-2-yl)oxy)-2-(hydroxymethyl)tetrahydro-2H-pyran-3-ol]	464%	8.05	
O=C(Nc1ccc(-c2ccc(-c3nc4nc(O[C@H]5CO[C@H](CO)[C@@H](O)C5)[nH]c4cc3Cl)cc2)cc1)OCC(O)CO (stereo partly shown) [Example 77]	494%	7.82	
O=S(=O)(CC1COC1)c1ccc(-c2ccc(-c3nc4nc(O[C@H]5CO[C@H](CO)[C@@H](O)C5)[nH]c4cc3Cl)cc2)cc1 [Example 54]	767%	8.05	
COC(=O)Nc1ccc(-c2ccc(-c3nc4[nH]c(O[C@H]5CO[C@H](CO)[C@@H](O)C5)nc4cc3Cl)cc2)cc1 [Example 74, Methyl (4′-(6-chloro-2-(((3R,5S,6R)-5-hydroxy-6-(hydroxymethyl)tetrahydro-2H-pyran-3-yl)oxy)-1H-imidazo[4,5-b]pyridin-5-yl)-[1,1′-biphenyl]-4-yl)carbamate]	460%	7.60	
OC[C@H]1OC[C@H](Oc2nc3nc(-c4ccc(-c5ccc(-n6ccnn6)cc5)cc4)c(Cl)cc3[nH]2)C[C@@H]1O [Example 48]	615%	8.70	
O=C(c1ccc(-c2ccc(-c3nc4nc(O[C@H]5CO[C@H](CO)[C@@H](O)C5)[nH]c4cc3Cl)cc2)cc1)N1CCC(O)(C(F)(F)F)CC1 [Example 73]	249%	8.10	
CC(CO)Oc1ccc(-c2nc3nc(O[C@H]4CO[C@H](CO)[C@@H](O)C4)[nH]c3cc2Cl)cc1 (stereo partly drawn) [Example 1, (2R,3S,5R)-5-((6-chloro-5-(4-((1-hydroxypropan-2-yl)oxy)phenyl)-1H-imidazo[4,5-b]pyridin-2-yl)oxy)-2-(hydroxymethyl)tetrahydro-2H-pyran-3-ol]	574%	6.89	
CC1(O)CCN(C(=O)c2ccc(-c3ccc(-c4nc5nc(O[C@H]6CO[C@H](CO)[C@@H](O)C6)[nH]c5cc4Cl)cc3)cc2)CC1 [Example 72]	504%	8.10	
OC[C@H]1OC[C@H](Oc2nc3nc(-c4ccc(-c5ccccc5)cc4)c(Cl)cc3[nH]2)[C@@H](O)[C@@H]1O [Example 62, (2R,3 S,4S,5 S)-5-((5-([1,1′-biphenyl]-4-yl)-6-chloro-1H-imidazo[4,5-b]pyridin-2-yl)oxy)-2-(hydroxymethyl)tetrahydro-2H-pyran-3,4-diol]	545%	7.77	
OC[C@H]1OC[C@H](Oc2nc3nc(-c4ccc(-c5ccc(-c6ccn[nH]6)cc5)cc4)c(Cl)cc3[nH]2)C[C@@H]1O [Example 46]	619%	7.82	
OC[C@H]1OC[C@H](Oc2nc3nc(-c4ccc(N5CC[C@@H](O)C5)cc4)c(Cl)cc3[nH]2)C[C@@H]1O [Example 34]	367%	7.72	
CS(=O)(=O)c1ccc(-c2ccc(-c3nc4nc(O[C@H]5CO[C@H](CO)[C@@H](O)[C@@H]5O)[nH]c4cc3Cl)cc2)cc1 [Example 67]	418%	8.52	
CC(C)(O)[C@H]1OC[C@H](Oc2nc3cc(Cl)c(-c4ccc(-c5ccccc5)cc4)nc3[nH]2)C[C@@H]1O [Example 70, (2S,3 S,5R)-5-((5-([1,1′-biphenyl]-4-yl)-6-chloro-1H-imidazo[4,5-b]pyridin-2-yl)oxy)-2-(2-hydroxypropan-2-yl)tetrahydro-2H-pyran-3-ol]	417%	7.51	
O=C(c1ccc(-c2ccc(-c3nc4nc(O[C@H]5CO[C@H](CO)[C@@H](O)[C@@H]5O)[nH]c4cc3Cl)cc2)cc1)N1CCC(O)CC1 [Example 68]	419%	8.22	
NC(=O)c1ncn([C@@H]2O[C@H](CO)[C@@H](O)[C@H]2O)c1N [AICAR]			35%
